Laboratory results published in patent US20250296938A1, “Compounds that Interact with the Ras Superfamily for the Treatment of Cancers, Inflammatory Diseases, Rasopathies, and Fibrotic Disease” (SHY Therapeutics, LLC, priority 2018, published 2025).

Tests used:
AKT phosphorylation = experiment: Western AKT cell-based phosphorylation assay, PANC-1; settings: Homo sapiens, PANC-1 (Table 4C)
How it was run: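 PANC-1 cells, serum-starved overnight in 0.5% FBS, were treated with compound at 10 μM (0.3% DMSO) for 6 h at 37 °C and then stimulated with 1.5 ng/ml EGF for 15 min. Lysates (15–50 μg) were immunoblotted for phospho-Akt Ser473, with ECL detection.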

MAPK phosphorylation = experiment: MAPK cell-based phosphorylation assay (ELISA or Western), PANC-1; settings: Homo sapiens; 10 μM, PANC-1 (Table 4C)
How it was run: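 Serum-starved (0.5% FBS overnight) cells given compound at 10 μM or serial dilutions (0.3% DMSO) for 6 h at 37 °C, then 1.5 ng/mL EGF for 15 min. Phospho-MAPK read by fixed-cell ELISA (fluorescence, 595 nm) or by Western blot of lysates with anti-phospho-p44/42 (Thr202/Tyr204).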

Compound | inhibition at 10 µM (AKT phosphorylation) [%] | inhibition at 10 µM (MAPK phosphorylation) [%]
CO[C@H]1CC[C@@H](Nc2nc(-c3ncc[nH]3)nc3sc(-c4ccn(C)n4)c(-c4ccccc4)c23)C1 [drawing 511] | 76 to 100 | 76 to 100
CO[C@H]1CC[C@@H](Nc2nc(-c3nccn3C)nc3sc(-c4ccn(C(C)C)n4)c(-c4ccccc4)c23)C1 [drawing 512] | 76 to 100 | 76 to 100
COc1nc(-c2ccccn2)nc2c(-c3ccccn3)csc12 [drawing 513] | 0 | 0
CO[C@H]1C[C@@H](Nc2nc(-c3nccn3C)nc3sc(-c4ccn(C)n4)c(C)c23)C1 [drawing 514] | 0 | 76 to 100
CO[C@H]1CC[C@@H](Nc2nc(-c3nccn3C)nc3sc(-c4ccn(C)n4)c(C)c23)C1 [drawing 515] | 0 | 0
Cc1c(-c2ccn(C)n2)sc2nc(-c3nccn3C)nc(NCCCS(C)(=O)=O)c12 [drawing 516] | 0 | 0
Cc1c(-c2ccn(C)n2)sc2nc(-c3nccn3C)nc(NCCCC(=O)N(C)C)c12 [drawing 517] | 0 | 0
Cc1c(-c2ccn(C)n2)sc2nc(-c3nccn3C)nc(NCCOC(=O)N(C)C)c12 [drawing 518] | 0 | 0
CO[C@H]1CC[C@@H](Nc2nc(-c3nccn3C)nc3sc(-c4ccn(C(C)C)n4)c(C)c23)C1 [drawing 519] | 0 | 76 to 100
CO[C@H]1C[C@@H](Nc2nc(-c3nccn3C)nc3sc(C(=O)NC(C)C)c(-c4ccccc4)c23)C1 [drawing 520] | 0 | 0
COCCNC(=O)c1sc2nc(-c3nccn3C)nc(N[C@H]3C[C@@H](OC)C3)c2c1-c1ccccc1 [drawing 521] | 0 | 0
CO[C@H]1C[C@@H](Nc2nc(-c3nccn3C)nc3sc(C(=O)N4CCOCC4)c(-c4ccccc4)c23)C1 [drawing 522] | 0 | 0
COC1CCN(C(=O)c2sc3nc(-c4nccn4C)nc(N[C@H]4C[C@@H](OC)C4)c3c2-c2ccccc2)C1 (stereo partly shown) [drawing 523] | 0 | 0
CO[C@H]1CC[C@@H](Nc2nc(-c3nccn3C)nc3sc(C(=O)NC(C)C)c(-c4ccccc4)c23)C1 [drawing 524] | 0 | 0
COCCNC(=O)c1sc2nc(-c3nccn3C)nc(N[C@@H]3CC[C@H](OC)C3)c2c1-c1ccccc1 [drawing 525] | 0 | 0
CO[C@H]1CC[C@@H](Nc2nc(-c3nccn3C)nc3sc(C(=O)N4CCCC4)c(-c4ccccc4)c23)C1 [drawing 526] | 0 | 0
CO[C@H]1CC[C@@H](Nc2nc(-c3nccn3C)nc3sc(C(=O)N4CCOCC4)c(-c4ccccc4)c23)C1 [drawing 527] | 0 | 0
